Assay results reported in PubChem BioAssay (NCI).
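Protocol summary: plate cells (96-well), add compound at 5 concentrations, incubate 48 h, interpolate endpoints linearly. At the GI50, growth is halved. The concentration for full growth arrest is given as TGI.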

Tests used:
Assay in all cases: growth of human tumour cells (NCI), 48 h
786-0 renal = tested on: 786-0 renal
A498 renal = tested on: A498 renal
A549 NSCLC = tested on: A549 NSCLC
ACHN renal = tested on: ACHN renal
BT-549 breast = tested on: BT-549 breast
CAKI-1 renal = tested on: CAKI-1 renal
CCRF-CEM leukemia = tested on: CCRF-CEM leukemia
COLO 205 colon = tested on: COLO 205 colon
DU-145 prostate = tested on: DU-145 prostate
HCC-2998 colon = tested on: HCC-2998 colon
HCT-116 colon = tested on: HCT-116 colon
HL-60(TB) leukemia = tested on: HL-60(TB) leukemia
HOP-62 NSCLC = tested on: HOP-62 NSCLC
HOP-92 NSCLC = tested on: HOP-92 NSCLC
HS 578T breast = tested on: HS 578T breast
HT29 colon = tested on: HT29 colon
IGROV1 ovarian = tested on: IGROV1 ovarian
K-562 leukemia = tested on: K-562 leukemia
KM12 colon = tested on: KM12 colon
LOX IMVI melanoma = tested on: LOX IMVI melanoma
M14 melanoma = tested on: M14 melanoma
MALME-3M melanoma = tested on: MALME-3M melanoma
MCF7 breast = tested on: MCF7 breast
MDA-MB-231 breast = tested on: MDA-MB-231 breast
MOLT-4 leukemia = tested on: MOLT-4 leukemia
NCI-H226 lung = tested on: NCI-H226 lung
NCI-H23 lung = tested on: NCI-H23 lung
NCI-H460 lung = tested on: NCI-H460 lung
NCI-H522 lung = tested on: NCI-H522 lung
NCI/ADR-RES ovarian = tested on: NCI/ADR-RES ovarian
OVCAR-3 ovarian = tested on: OVCAR-3 ovarian
OVCAR-4 ovarian = tested on: OVCAR-4 ovarian
OVCAR-5 ovarian = tested on: OVCAR-5 ovarian
OVCAR-8 ovarian = tested on: OVCAR-8 ovarian
PC-3 prostate = tested on: PC-3 prostate
RPMI-8226 leukemia = tested on: RPMI-8226 leukemia
RXF 393 renal = tested on: RXF 393 renal
SF-268 CNS = tested on: SF-268 CNS
SF-539 CNS = tested on: SF-539 CNS
SK-MEL-2 melanoma = tested on: SK-MEL-2 melanoma
SK-MEL-28 melanoma = tested on: SK-MEL-28 melanoma
SK-MEL-5 melanoma = tested on: SK-MEL-5 melanoma
SK-OV-3 ovarian = tested on: SK-OV-3 ovarian
SN12C renal = tested on: SN12C renal
SNB-75 CNS = tested on: SNB-75 CNS
SR leukemia = tested on: SR leukemia
SW-620 colon = tested on: SW-620 colon
T-47D breast = tested on: T-47D breast
TK-10 renal = tested on: TK-10 renal
U251 CNS = tested on: U251 CNS
UACC-257 melanoma = tested on: UACC-257 melanoma
UACC-62 melanoma = tested on: UACC-62 melanoma
UO-31 renal = tested on: UO-31 renal

COc1ccccc1CNCCN1C(=O)c2ccc3c4c(ccc(c24)C1=O)C(=O)N(CCNCc1ccccc1OC)C3=O
GI50 (786-0 renal): 0.187 µM
TGI (786-0 renal): 0.37 µM
GI50 (A498 renal): 1.49 µM
TGI (A498 renal): 2.92 µM
GI50 (A549 NSCLC): 0.204 µM
TGI (A549 NSCLC): 0.47 µM
GI50 (ACHN renal): 0.39 µM
TGI (ACHN renal): 1.24 µM
GI50 (BT-549 breast): 0.502 µM
TGI (BT-549 breast): 1.64 µM
GI50 (CAKI-1 renal): 1.64 µM
TGI (CAKI-1 renal): 5.26 µM
GI50 (CCRF-CEM leukemia): 0.244 µM
GI50 (COLO 205 colon): 0.169 µM
TGI (COLO 205 colon): 0.345 µM
GI50 (DU-145 prostate): 0.321 µM
TGI (DU-145 prostate): 1.11 µM
GI50 (HCC-2998 colon): 0.182 µM
TGI (HCC-2998 colon): 0.354 µM
GI50 (HCT-116 colon): 0.189 µM
TGI (HCT-116 colon): 0.406 µM
GI50 (HL-60(TB) leukemia): 0.265 µM
TGI (HL-60(TB) leukemia): 0.607 µM
GI50 (HOP-62 NSCLC): 0.221 µM
TGI (HOP-62 NSCLC): 0.603 µM
GI50 (HOP-92 NSCLC): 1.71 µM
TGI (HOP-92 NSCLC): 4.38 µM
GI50 (HS 578T breast): 1.17 µM
TGI (HS 578T breast): 4.88 µM
GI50 (HT29 colon): 0.215 µM
TGI (HT29 colon): 0.447 µM
GI50 (IGROV1 ovarian): 0.203 µM
TGI (IGROV1 ovarian): 0.549 µM
GI50 (K-562 leukemia): 0.234 µM
TGI (K-562 leukemia): 1.09 µM
GI50 (KM12 colon): 0.165 µM
TGI (KM12 colon): 0.35 µM
GI50 (LOX IMVI melanoma): 0.168 µM
TGI (LOX IMVI melanoma): 0.338 µM
GI50 (M14 melanoma): 0.189 µM
TGI (M14 melanoma): 0.378 µM
GI50 (MALME-3M melanoma): 0.386 µM
TGI (MALME-3M melanoma): 1.55 µM
GI50 (MCF7 breast): 0.198 µM
TGI (MCF7 breast): 0.492 µM
GI50 (MDA-MB-231 breast): 0.277 µM
TGI (MDA-MB-231 breast): 0.817 µM
GI50 (MOLT-4 leukemia): 0.252 µM
TGI (MOLT-4 leukemia): 0.65 µM
GI50 (NCI-H226 lung): 1.26 µM
TGI (NCI-H226 lung): 2.77 µM
GI50 (NCI-H23 lung): 0.19 µM
TGI (NCI-H23 lung): 0.394 µM
GI50 (NCI-H460 lung): 0.208 µM
TGI (NCI-H460 lung): 0.458 µM
GI50 (NCI-H522 lung): 0.137 µM
TGI (NCI-H522 lung): 0.314 µM
GI50 (NCI/ADR-RES ovarian): 0.283 µM
TGI (NCI/ADR-RES ovarian): 0.831 µM
GI50 (OVCAR-3 ovarian): 0.207 µM
TGI (OVCAR-3 ovarian): 0.676 µM
GI50 (OVCAR-4 ovarian): 0.132 µM
TGI (OVCAR-4 ovarian): 0.261 µM
GI50 (OVCAR-5 ovarian): 0.68 µM
TGI (OVCAR-5 ovarian): 3.34 µM
GI50 (OVCAR-8 ovarian): 0.215 µM
TGI (OVCAR-8 ovarian): 0.505 µM
GI50 (PC-3 prostate): 0.317 µM
TGI (PC-3 prostate): 0.963 µM
GI50 (RPMI-8226 leukemia): 0.287 µM
TGI (RPMI-8226 leukemia): 0.955 µM
GI50 (RXF 393 renal): 0.18 µM
TGI (RXF 393 renal): 0.397 µM
GI50 (SF-268 CNS): 0.269 µM
TGI (SF-268 CNS): 1.12 µM
GI50 (SF-539 CNS): 0.553 µM
TGI (SF-539 CNS): 1.06 µM
GI50 (SK-MEL-2 melanoma): 0.712 µM
TGI (SK-MEL-2 melanoma): 2.24 µM
GI50 (SK-MEL-28 melanoma): 1.46 µM
TGI (SK-MEL-28 melanoma): 2.87 µM
GI50 (SK-MEL-5 melanoma): 0.348 µM
TGI (SK-MEL-5 melanoma): 1.4 µM
GI50 (SK-OV-3 ovarian): 1.55 µM
TGI (SK-OV-3 ovarian): 3.15 µM
GI50 (SN12C renal): 0.248 µM
TGI (SN12C renal): 0.701 µM
GI50 (SNB-75 CNS): 1.4 µM
TGI (SNB-75 CNS): 2.83 µM
GI50 (SR leukemia): 0.178 µM
TGI (SR leukemia): 0.581 µM
GI50 (SW-620 colon): 0.235 µM
TGI (SW-620 colon): 0.591 µM
GI50 (T-47D breast): 0.481 µM
TGI (T-47D breast): 1.27 µM
GI50 (TK-10 renal): 0.263 µM
TGI (TK-10 renal): 0.735 µM
GI50 (U251 CNS): 0.225 µM
TGI (U251 CNS): 0.505 µM
GI50 (UACC-257 melanoma): 0.196 µM
TGI (UACC-257 melanoma): 0.387 µM
GI50 (UACC-62 melanoma): 1.77 µM
TGI (UACC-62 melanoma): 3.39 µM
GI50 (UO-31 renal): 0.841 µM
TGI (UO-31 renal): 2.14 µM
